{
  "source": "paper doi:10.1101/2023.11.24.568596v1",
  "about": "(biorxiv, 2023)",
  "details_in_all_cases": "binder",
  "key": {"CDK2": {"biological_target": "CDK2 (Homo sapiens, UniProt P24941)"}, "CK1d": {"biological_target": "CK1d (Homo sapiens, UniProt P48730)", "sequence (P48730 whole entry)": "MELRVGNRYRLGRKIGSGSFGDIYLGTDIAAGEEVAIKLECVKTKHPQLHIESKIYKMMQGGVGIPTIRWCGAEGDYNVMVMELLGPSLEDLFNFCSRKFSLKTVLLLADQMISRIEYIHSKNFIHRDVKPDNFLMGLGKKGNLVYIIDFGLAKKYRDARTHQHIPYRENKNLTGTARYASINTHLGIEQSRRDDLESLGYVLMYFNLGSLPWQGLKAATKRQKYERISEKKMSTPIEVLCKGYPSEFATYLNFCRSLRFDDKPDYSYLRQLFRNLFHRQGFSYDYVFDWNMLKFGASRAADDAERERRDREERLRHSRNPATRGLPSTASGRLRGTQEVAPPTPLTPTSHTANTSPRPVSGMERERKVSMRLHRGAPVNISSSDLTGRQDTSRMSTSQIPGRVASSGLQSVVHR"}, "CaMK1d": {"biological_target": "CaMK1d (Homo sapiens, UniProt Q8IU85)", "sequence (Q8IU85 whole entry)": "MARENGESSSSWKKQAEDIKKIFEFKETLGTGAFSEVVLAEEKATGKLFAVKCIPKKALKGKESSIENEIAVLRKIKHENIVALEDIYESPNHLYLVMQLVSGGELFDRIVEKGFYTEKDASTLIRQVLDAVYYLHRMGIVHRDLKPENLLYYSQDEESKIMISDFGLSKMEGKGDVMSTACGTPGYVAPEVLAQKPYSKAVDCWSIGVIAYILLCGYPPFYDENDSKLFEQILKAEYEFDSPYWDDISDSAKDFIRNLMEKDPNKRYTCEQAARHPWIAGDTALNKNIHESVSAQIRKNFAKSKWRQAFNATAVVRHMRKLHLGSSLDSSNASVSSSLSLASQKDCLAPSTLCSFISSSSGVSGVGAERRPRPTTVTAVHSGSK"}, "SRC": {"biological_target": "SRC (Homo sapiens, UniProt P12931)", "sequence (P12931 whole entry)": "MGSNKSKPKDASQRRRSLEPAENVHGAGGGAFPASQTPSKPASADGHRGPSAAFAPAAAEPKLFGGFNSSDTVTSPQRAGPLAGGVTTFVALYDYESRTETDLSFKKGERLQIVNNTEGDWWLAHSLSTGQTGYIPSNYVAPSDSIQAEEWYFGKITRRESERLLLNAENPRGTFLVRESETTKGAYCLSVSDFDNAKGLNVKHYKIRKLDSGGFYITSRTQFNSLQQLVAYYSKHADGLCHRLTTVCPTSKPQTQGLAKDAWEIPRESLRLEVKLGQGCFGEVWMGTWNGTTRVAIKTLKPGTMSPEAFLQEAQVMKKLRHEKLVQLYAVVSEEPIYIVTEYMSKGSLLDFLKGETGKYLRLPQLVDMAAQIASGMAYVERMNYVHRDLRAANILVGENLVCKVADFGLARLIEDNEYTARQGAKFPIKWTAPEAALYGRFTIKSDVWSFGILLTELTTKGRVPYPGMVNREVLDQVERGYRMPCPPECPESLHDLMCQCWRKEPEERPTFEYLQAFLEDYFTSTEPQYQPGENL"}, "ULK3": {"biological_target": "T1, ULK3 (Homo sapiens, UniProt Q6PHR2)", "T1 sequence (Q6PHR2 1-472)": "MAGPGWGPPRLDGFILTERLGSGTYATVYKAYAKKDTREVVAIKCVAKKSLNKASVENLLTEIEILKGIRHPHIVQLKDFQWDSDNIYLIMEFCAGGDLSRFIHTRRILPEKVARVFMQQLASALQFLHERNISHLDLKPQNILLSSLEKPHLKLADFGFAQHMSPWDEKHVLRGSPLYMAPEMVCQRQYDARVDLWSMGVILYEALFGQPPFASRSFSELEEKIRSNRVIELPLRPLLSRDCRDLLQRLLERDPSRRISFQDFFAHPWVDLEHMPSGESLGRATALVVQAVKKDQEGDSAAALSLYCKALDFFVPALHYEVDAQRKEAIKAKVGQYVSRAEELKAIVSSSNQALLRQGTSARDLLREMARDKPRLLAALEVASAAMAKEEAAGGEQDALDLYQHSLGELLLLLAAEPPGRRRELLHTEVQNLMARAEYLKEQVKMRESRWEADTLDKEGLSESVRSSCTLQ"}, "MST1": {"biological_target": "T2, MST1 (Homo sapiens, UniProt Q13043)", "T2 sequence (Q13043 1-487)": "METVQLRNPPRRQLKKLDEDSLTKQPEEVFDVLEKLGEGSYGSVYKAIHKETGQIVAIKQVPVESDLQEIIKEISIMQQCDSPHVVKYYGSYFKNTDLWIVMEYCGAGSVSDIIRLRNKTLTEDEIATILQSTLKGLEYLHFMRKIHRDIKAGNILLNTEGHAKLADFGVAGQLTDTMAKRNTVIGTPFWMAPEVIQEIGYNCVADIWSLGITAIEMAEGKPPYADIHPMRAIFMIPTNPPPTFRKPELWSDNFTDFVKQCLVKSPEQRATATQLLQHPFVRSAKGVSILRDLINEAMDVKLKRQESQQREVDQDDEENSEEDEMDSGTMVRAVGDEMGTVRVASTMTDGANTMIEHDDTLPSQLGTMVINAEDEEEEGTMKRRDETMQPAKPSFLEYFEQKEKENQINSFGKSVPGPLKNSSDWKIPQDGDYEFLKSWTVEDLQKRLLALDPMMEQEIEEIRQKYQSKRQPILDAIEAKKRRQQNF"}, "MST2": {"biological_target": "T3, MST2 (Homo sapiens, UniProt Q13188)", "T3 sequence (Q13188 1-491)": "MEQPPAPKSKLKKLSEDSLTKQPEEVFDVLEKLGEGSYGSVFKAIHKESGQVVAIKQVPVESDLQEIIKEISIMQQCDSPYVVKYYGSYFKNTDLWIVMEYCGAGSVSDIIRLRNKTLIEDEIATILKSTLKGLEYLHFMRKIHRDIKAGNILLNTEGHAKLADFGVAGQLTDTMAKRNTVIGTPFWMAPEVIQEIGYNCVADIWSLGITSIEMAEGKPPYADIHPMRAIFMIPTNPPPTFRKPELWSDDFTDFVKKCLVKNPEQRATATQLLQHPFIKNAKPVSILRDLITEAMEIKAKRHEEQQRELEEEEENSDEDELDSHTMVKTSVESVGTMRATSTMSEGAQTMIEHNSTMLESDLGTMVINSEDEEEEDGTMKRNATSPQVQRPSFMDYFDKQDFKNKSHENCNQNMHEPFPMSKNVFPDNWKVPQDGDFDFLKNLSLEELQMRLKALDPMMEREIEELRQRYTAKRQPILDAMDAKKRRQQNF"}, "MST3": {"biological_target": "MST3 (Homo sapiens, UniProt Q9Y6E0)", "sequence (Q9Y6E0 whole entry)": "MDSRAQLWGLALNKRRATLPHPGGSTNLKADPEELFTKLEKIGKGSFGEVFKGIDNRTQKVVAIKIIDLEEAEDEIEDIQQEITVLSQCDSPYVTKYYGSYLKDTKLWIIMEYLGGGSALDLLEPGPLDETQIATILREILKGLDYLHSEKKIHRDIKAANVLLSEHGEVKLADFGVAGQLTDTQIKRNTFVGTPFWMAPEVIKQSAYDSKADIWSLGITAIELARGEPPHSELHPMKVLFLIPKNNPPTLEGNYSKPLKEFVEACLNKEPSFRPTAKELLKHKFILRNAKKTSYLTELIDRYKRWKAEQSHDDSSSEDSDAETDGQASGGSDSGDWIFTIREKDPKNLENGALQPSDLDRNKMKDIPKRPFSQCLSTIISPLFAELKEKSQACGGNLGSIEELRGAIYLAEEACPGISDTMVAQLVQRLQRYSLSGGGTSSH"}, "MST4": {"biological_target": "MST4 (Homo sapiens, UniProt Q9P289)", "sequence (Q9P289 whole entry)": "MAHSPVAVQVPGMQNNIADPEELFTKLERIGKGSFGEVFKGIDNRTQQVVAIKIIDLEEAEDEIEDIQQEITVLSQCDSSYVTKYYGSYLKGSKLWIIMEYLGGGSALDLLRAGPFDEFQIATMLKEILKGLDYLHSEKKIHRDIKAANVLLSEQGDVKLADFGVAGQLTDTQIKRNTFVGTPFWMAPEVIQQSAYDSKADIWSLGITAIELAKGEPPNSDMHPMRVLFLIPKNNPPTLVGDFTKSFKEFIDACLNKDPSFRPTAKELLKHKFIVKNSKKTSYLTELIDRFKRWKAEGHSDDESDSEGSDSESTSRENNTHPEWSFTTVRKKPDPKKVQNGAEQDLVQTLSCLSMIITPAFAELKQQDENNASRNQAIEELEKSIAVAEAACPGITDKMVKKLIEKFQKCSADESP"}, "PAK1": {"biological_target": "PAK1 (Homo sapiens, UniProt Q13153)", "sequence (Q13153 whole entry)": "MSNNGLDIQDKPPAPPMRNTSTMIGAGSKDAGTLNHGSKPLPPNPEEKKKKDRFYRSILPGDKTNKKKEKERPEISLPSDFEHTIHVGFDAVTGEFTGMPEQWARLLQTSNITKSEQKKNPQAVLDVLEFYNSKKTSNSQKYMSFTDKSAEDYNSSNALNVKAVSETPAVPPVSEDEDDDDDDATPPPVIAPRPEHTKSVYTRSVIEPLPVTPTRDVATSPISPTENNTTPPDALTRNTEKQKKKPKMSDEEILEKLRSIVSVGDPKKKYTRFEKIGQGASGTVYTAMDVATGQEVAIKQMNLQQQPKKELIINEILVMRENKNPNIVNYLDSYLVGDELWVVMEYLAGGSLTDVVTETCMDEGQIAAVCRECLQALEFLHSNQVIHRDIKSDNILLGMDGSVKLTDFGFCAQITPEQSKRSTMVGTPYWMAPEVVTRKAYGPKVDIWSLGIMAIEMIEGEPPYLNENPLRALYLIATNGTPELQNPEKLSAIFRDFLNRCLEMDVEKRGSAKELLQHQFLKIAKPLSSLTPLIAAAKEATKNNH"}},
  "data": [
    {"smiles": "CNc1ncc2cc(-c3ccc(-c4cccc(C)n4)cc3Cl)c(=O)n(CCCCN)c2n1", "note": "[compound 20, MRLW5]", "values": [
      {"measurement": "ΔTm MRLW5 (20)", "setting": "CDK2", "value": 1.3, "unit": "°C"},
      {"measurement": "ΔTm MRLW5 (20)", "setting": "CK1d", "value": 0.8, "unit": "°C"},
      {"measurement": "ΔTm MRLW5 (20)", "setting": "CaMK1d", "value": 7.2, "unit": "°C"},
      {"measurement": "ΔTm MRLW5 (20)", "setting": "SRC", "value": 0.9, "unit": "°C"},
      {"measurement": "ΔTm MRLW5 (20)", "setting": "ULK3", "value": 8.6, "unit": "°C"}
    ]},
    {"smiles": "CNc1ncc2cc(-c3ccc(-c4cccc(C)n4)cc3Cl)c(=O)n(CCC3CCNCC3)c2n1", "note": "[compound 22, 6-(2-Chloro-4-(6-methylpyridin-2-yl)phenyl)-2-(methylamino)-8-(2-(piperidin-4-yl)ethyl)pyrido[2,3-d]pyrimidin-7(8H)-one]", "values": [
      {"measurement": "ΔTm 22", "setting": "CDK2", "value": 2.5, "unit": "°C"},
      {"measurement": "ΔTm 22", "setting": "CK1d", "value": 2.1, "unit": "°C"},
      {"measurement": "ΔTm 22", "setting": "CaMK1d", "value": 8.5, "unit": "°C"},
      {"measurement": "ΔTm 22", "setting": "SRC", "value": 0.6, "unit": "°C"},
      {"measurement": "ΔTm 22", "setting": "ULK3", "value": 9.7, "unit": "°C"}
    ]},
    {"smiles": "CNc1ncc2cc(-c3ccc(-c4cccc(C)n4)cc3Cl)c(=O)n(C[C@H]3CC[C@H](N)CC3)c2n1", "note": "[compound 23, 23]", "values": [
      {"measurement": "ΔTm 23", "setting": "CDK2", "value": 3.5, "unit": "°C"},
      {"measurement": "ΔTm 23", "setting": "CK1d", "value": 2.3, "unit": "°C"},
      {"measurement": "ΔTm 23", "setting": "CaMK1d", "value": 9.5, "unit": "°C"},
      {"measurement": "ΔTm 23", "setting": "SRC", "value": 1.2, "unit": "°C"},
      {"measurement": "ΔTm 23", "setting": "ULK3", "value": 13.5, "unit": "°C"}
    ]},
    {"smiles": "Cc1cccc(-c2ccc(-c3cc4cnc(NC(CO)CO)nc4n(CCCCN)c3=O)c(Cl)c2)n1", "note": "[compound 24, 8-(4-Aminobutyl)-6-(2-chloro-4-(6-methylpyridin-2-yl)phenyl)-2-((1,3-dihydroxypropan-2-yl)amino)pyrido[2,3-d]pyrimidin-7(8H)-one]", "values": [
      {"measurement": "ΔTm MR24 (24)", "setting": "CDK2", "value": 1.2, "unit": "°C"},
      {"measurement": "ΔTm MR24 (24)", "setting": "CK1d", "value": 1.2, "unit": "°C"},
      {"measurement": "ΔTm MR24 (24)", "setting": "CaMK1d", "value": 0.5, "unit": "°C"},
      {"measurement": "ΔTm MR24 (24)", "setting": "SRC", "value": 0.0, "unit": "°C"},
      {"measurement": "ΔTm MR24 (24)", "setting": "ULK3", "value": 7.2, "unit": "°C"},
      {"measurement": "dTm MST1", "setting": "MST1", "value": 2.1, "unit": "°C"},
      {"measurement": "dTm MST2", "setting": "MST2", "value": 4.6, "unit": "°C"},
      {"measurement": "dTm MST3", "setting": "MST3", "value": 10.6, "unit": "°C"},
      {"measurement": "dTm MST4", "setting": "MST4", "value": 8.1, "unit": "°C"},
      {"measurement": "dTm PAK1", "setting": "PAK1", "value": 5.1, "unit": "°C"}
    ]},
    {"smiles": "Cc1cccc(-c2ccc(-c3cc4cnc(NCCCc5ccc(N)cc5)nc4n(CCCCN)c3=O)c(Cl)c2)n1", "note": "[compound 25, 8-(4-Aminobutyl)-2-((3-(4-aminophenyl)propyl)amino)-6-(2-chloro-4-(6-methylpyridin-2-yl)phenyl)pyrido[2,3-d]pyrimidin-7(8H)-one]", "values": [
      {"measurement": "ΔTm 25", "setting": "CDK2", "value": 4.9, "unit": "°C"},
      {"measurement": "ΔTm 25", "setting": "CK1d", "value": 3.1, "unit": "°C"},
      {"measurement": "ΔTm 25", "setting": "CaMK1d", "value": 5.3, "unit": "°C"},
      {"measurement": "ΔTm 25", "setting": "SRC", "value": 1.0, "unit": "°C"},
      {"measurement": "ΔTm 25", "setting": "ULK3", "value": 11.1, "unit": "°C"},
      {"measurement": "dTm MST1", "setting": "MST1", "value": 4.9, "unit": "°C"},
      {"measurement": "dTm MST2", "setting": "MST2", "value": 7.2, "unit": "°C"},
      {"measurement": "dTm MST3", "setting": "MST3", "value": 12.2, "unit": "°C"},
      {"measurement": "dTm MST4", "setting": "MST4", "value": 9.7, "unit": "°C"},
      {"measurement": "dTm PAK1", "setting": "PAK1", "value": 6.8, "unit": "°C"}
    ]},
    {"smiles": "Cc1cccc(-c2ccc(-c3cc4cnc(NCCCN5CCOCC5)nc4n(CCCCN)c3=O)c(Cl)c2)n1", "note": "[compound 26, MR26]", "values": [
      {"measurement": "ΔTm MR26 (26)", "setting": "CDK2", "value": 0.9, "unit": "°C"},
      {"measurement": "ΔTm MR26 (26)", "setting": "CK1d", "value": 1.9, "unit": "°C"},
      {"measurement": "ΔTm MR26 (26)", "setting": "CaMK1d", "value": 4.1, "unit": "°C"},
      {"measurement": "ΔTm MR26 (26)", "setting": "SRC", "value": 1.4, "unit": "°C"},
      {"measurement": "ΔTm MR26 (26)", "setting": "ULK3", "value": 6.7, "unit": "°C"},
      {"measurement": "dTm MST1", "setting": "MST1", "value": 3.6, "unit": "°C"},
      {"measurement": "dTm MST2", "setting": "MST2", "value": 5.9, "unit": "°C"},
      {"measurement": "dTm MST3", "setting": "MST3", "value": 11.6, "unit": "°C"},
      {"measurement": "dTm MST4", "setting": "MST4", "value": 10.6, "unit": "°C"},
      {"measurement": "dTm PAK1", "setting": "PAK1", "value": 4.1, "unit": "°C"}
    ]},
    {"smiles": "Cc1cccc(-c2ccc(-c3cc4cnc(Nc5ccc(O)cc5)nc4n(CCCCN)c3=O)c(Cl)c2)n1", "note": "[compound 31, 8-(4-Aminobutyl)-6-(2-chloro-4-(6-methylpyridin-2-yl)phenyl)-2-((4-hydroxyphenyl)amino) pyrido[2,3-d]pyrimidin-7(8H)-one]", "values": [
      {"measurement": "ΔTm 31", "setting": "SRC", "value": 5.0, "unit": "°C"},
      {"measurement": "ΔTm 31", "setting": "ULK3", "value": 14.5, "unit": "°C"},
      {"measurement": "dTm MST1", "setting": "MST1", "value": 8.0, "unit": "°C"},
      {"measurement": "dTm MST2", "setting": "MST2", "value": 13.7, "unit": "°C"},
      {"measurement": "dTm MST3", "setting": "MST3", "value": 17.1, "unit": "°C"},
      {"measurement": "dTm MST4", "setting": "MST4", "value": 15.0, "unit": "°C"},
      {"measurement": "dTm PAK1", "setting": "PAK1", "value": 9.2, "unit": "°C"}
    ]},
    {"smiles": "Cc1cccc(-c2ccc(-c3cc4cnc(Nc5ccc(C)c(O)c5)nc4n(CCCCN)c3=O)c(Cl)c2)n1", "note": "[compound 32, 8-(4-Aminobutyl)-6-(2-chloro-4-(6-methylpyridin-2-yl)phenyl)-2-((3-hydroxy-4-methylphenyl)amino)pyrido[2,3-d]pyrimidin-7(8H)-one]", "values": [
      {"measurement": "ΔTm 32", "setting": "SRC", "value": 5.1, "unit": "°C"},
      {"measurement": "ΔTm 32", "setting": "ULK3", "value": 14.3, "unit": "°C"},
      {"measurement": "dTm MST1", "setting": "MST1", "value": 8.1, "unit": "°C"},
      {"measurement": "dTm MST2", "setting": "MST2", "value": 13.2, "unit": "°C"},
      {"measurement": "dTm MST3", "setting": "MST3", "value": 17.5, "unit": "°C"},
      {"measurement": "dTm MST4", "setting": "MST4", "value": 15.9, "unit": "°C"},
      {"measurement": "dTm PAK1", "setting": "PAK1", "value": 9.1, "unit": "°C"}
    ]}
  ]
}
